# Measurements reported in patent US20150141381A1, “TETRACYCLINE COMPOUNDS HAVING TARGET THERAPEUTIC ACTIVITIES” (Paratek Pharmaceuticals, Inc., priority 2001, published 2015).
# Where two headings read alike, the source gives them in different places.
# What was measured:
# E. coli mL308 225 = assay: In Vitro Anti-Bacterial Activity Assay (MIC), gram negative; type: cell-based; details: Escherichia coli, ML308225, 18 h, MIC class, Table 3 (Continued); read-out: Gram− activity
# S. aureus RN450 = assay: In Vitro Anti-Bacterial Activity Assay (MIC), gram positive; type: cell-based; details: Staphylococcus aureus, RN450, 18 h
# [1] = MIC class, Table 3 (Continued), read-out: Gram+ activity
Structure (SMILES),MIC (E. coli mL308 225),MIC (S. aureus RN450; [1]),"MIC (S. aureus RN450; MIC class, Table 3, read-out: Antibiotic Activity Gram +)",MIC (S. aureus RN450; read-out: Antibiotic Activity Gram +)
Cc1c2c(c(O)c3c(O)cccc13)C(=O)[C@]1(O)C(=O)C(C(N)=O)=C(O)[C@@H](N(C)C)[C@@H]1C2,< 4 µg/mL,< 4 µg/mL,,
CC1c2cccc(O)c2C(=O)C2=C(O)[C@]3(O)C(=O)C(C(N)=O)=C(O)[C@@H](N(C)C)[C@@H]3[C@@H](O)[C@@H]21 (stereo partly shown),> 4 µg/mL,< 4 µg/mL,,
C#Cc1cc(N(C)C)c2c(c1O)C(=O)C1=C(O)[C@]3(O)C(=O)C(C(N)=O)=C(O)C(N(C)C)[C@@H]3C[C@@H]1C2 (stereo partly shown),> 4 µg/mL,< 4 µg/mL,,
CN(C)Cc1ccc(-c2ccc(O)c3c2C[C@H]2C[C@H]4C(N(C)C)C(O)=C(C(N)=O)C(=O)[C@@]4(O)C(O)=C2C3=O)cc1 (stereo partly shown),< 4 µg/mL,< 4 µg/mL,,
CN(C)c1cc(NC(=O)Nc2ccccc2)c(O)c2c1C[C@H]1C[C@H]3C(N(C)C)C(O)=C(C(N)=O)C(=O)[C@@]3(O)C(O)=C1C2=O (stereo partly shown),< 4 µg/mL,< 4 µg/mL,,
CCCCCc1ccc(O)c2c1C[C@H]1C[C@H]3C(N(C)C)C(O)=C(C(N)=O)C(=O)[C@@]3(O)C(O)=C1C2=O (stereo partly shown),< 4 µg/mL,< 4 µg/mL,,
CN(C)c1cc(CN2CCCCC2)c(O)c2c1C[C@H]1C[C@H]3C(N(C)C)C(O)=C(C(N)=O)C(=O)[C@@]3(O)C(O)=C1C2=O (stereo partly shown),> 4 µg/mL,< 4 µg/mL,,
CC1c2cccc(O)c2C(=O)C(C(=O)O)C1[C@H](O)[C@@H]1CC(=O)C(C(N)=O)=C(O)[C@H]1N(C)C (stereo partly shown),> 4 µg/mL,> 4 µg/mL,,
CCCC(=O)C[C@@H]1[C@H]2[C@H](N(C)C)C(O)=C(C(N)=O)C(=O)[C@@]2(O)C(O)=C2C(=O)c3c(O)cccc3C(C)[C@H]21 (stereo partly shown),< 4 µg/mL,< 4 µg/mL,,
CC1c2cccc(O)c2C(=O)C2=C(O)[C@]3(O)C(=O)C(C(N)=O)=C(O)[C@@H](N(C)C)[C@@H]3[C@@H](OC(=O)C3CCCCC3)[C@@H]21 (stereo partly shown),< 4 µg/mL,< 4 µg/mL,,
CC1c2cccc(O)c2C(=O)C2=C(O)[C@]3(O)C(=O)C(C(N)=O)=C(O)[C@@H](N(C)C)[C@@H]3[C@@H](OC(=O)C3CCC3)[C@@H]21 (stereo partly shown),< 4 µg/mL,< 4 µg/mL,,
CC(=O)O[C@@H]1[C@H]2[C@H](N(C)C)C(O)=C(C(N)=O)C(=O)[C@@]2(O)C(O)=C2C(=O)c3c(O)cccc3C(C)[C@H]21 (stereo partly shown),< 4 µg/mL,< 4 µg/mL,,
CC1c2ccc(C3(C)CCCC3)c(O)c2C(=O)C2=C(O)[C@]3(O)C(=O)C(C(N)=O)=C(O)[C@@H](N(C)C)[C@@H]3[C@@H](O)[C@@H]21 (stereo partly shown),< 4 µg/mL,< 4 µg/mL,,
CC1c2cccc(O)c2C(=O)C2=C(O)[C@]3(O)C(=O)C(C(N)=O)=C(O)[C@@H](N(C)C)[C@@H]3[C@@H](OC(=O)CCC(=O)O)[C@@H]21 (stereo partly shown),> 4 µg/mL,< 4 µg/mL,,
CCC(=O)O[C@@H]1[C@H]2[C@H](N(C)C)C(O)=C(C(N)=O)C(=O)[C@@]2(O)C(O)=C2C(=O)c3c(O)cccc3C(C)[C@H]21 (stereo partly shown),> 4 µg/mL,> 4 µg/mL,,
CCOC(=O)/C=C/c1ccc2c(c1O)C(=O)C1=C(O)[C@]3(O)C(=O)C(C(N)=O)=C(O)[C@@H](N(C)C)[C@@H]3[C@@H](O)[C@@H]1C2C (stereo partly shown),< 4 µg/mL,< 4 µg/mL,,
CC1c2ccc(-c3ccccc3)c(O)c2C(=O)C2=C(O)[C@]3(O)C(=O)C(C(N)=O)=C(O)[C@@H](N(C)C)[C@@H]3[C@@H](O)[C@@H]21 (stereo partly shown),< 4 µg/mL,< 4 µg/mL,,
CC1c2ccc(C3C=CCC3)c(O)c2C(=O)C2=C(O)[C@]3(O)C(=O)C(C(N)=O)=C(O)[C@@H](N(C)C)[C@@H]3[C@@H](O)[C@@H]21 (stereo partly shown),< 4 µg/mL,< 4 µg/mL,,
COc1ccc(-c2ccc3c(c2O)C(=O)C2=C(O)[C@]4(O)C(=O)C(C(N)=O)=C(O)[C@@H](N(C)C)[C@@H]4[C@@H](O)[C@@H]2C3C)cc1 (stereo partly shown),< 4 µg/mL,< 4 µg/mL,,
CC1c2ccc(-c3cc4ccccc4o3)c(O)c2C(=O)C2=C(O)[C@]3(O)C(=O)C(C(N)=O)=C(O)[C@@H](N(C)C)[C@@H]3[C@@H](O)[C@@H]21 (stereo partly shown),< 4 µg/mL,< 4 µg/mL,,
CN(C)[C@@H]1C(O)=C(C(N)=O)C(=O)[C@@]2(O)C(O)=C3C(=O)c4c(O)cccc4/C(=C\c4ccc(F)cc4)[C@H]3[C@H](O)[C@@H]12,< 4 µg/mL,< 4 µg/mL,,
CC1c2ccc(-c3ccc4c(c3)OCO4)c(O)c2C(=O)C2=C(O)[C@]3(O)C(=O)C(C(N)=O)=C(O)[C@@H](N(C)C)[C@@H]3[C@@H](O)[C@@H]21 (stereo partly shown),< 4 µg/mL,< 4 µg/mL,,
CC1c2c(-c3ccc(Cl)cc3)ccc(O)c2C(=O)C2=C(O)[C@]3(O)C(=O)C(C(N)=O)=C(O)[C@@H](N(C)C)[C@@H]3[C@@H](O)[C@@H]21 (stereo partly shown),< 4 µg/mL,< 4 µg/mL,,
CCOc1ccc(/C=C2\c3cccc(O)c3C(=O)C3=C(O)[C@]4(O)C(=O)C(C(N)=O)=C(O)[C@@H](N(C)C)[C@@H]4[C@@H](O)[C@@H]32)cc1,> 4 µg/mL,< 4 µg/mL,,

Structure (SMILES),MIC (E. coli mL308 225),MIC (S. aureus RN450; [1]),"MIC (S. aureus RN450; MIC class, Table 3, read-out: Antibiotic Activity Gram +)",MIC (S. aureus RN450; read-out: Antibiotic Activity Gram +)
CN(C)[C@@H]1C(O)=C(C(N)=O)C(=O)[C@@]2(O)C(O)=C3C(=O)c4c(O)cccc4C(CSCc4ccccc4)[C@H]3[C@H](O)[C@@H]12 (stereo partly shown),< 4 µg/mL,< 4 µg/mL,,
CN(C)[C@@H]1C(O)=C(C(N)=O)C(=O)[C@@]2(O)C(O)=C3C(=O)c4c(O)ccc(Br)c4C[C@H]3C[C@@H]12,< 4 µg/mL,< 4 µg/mL,,
CCN(CC)c1ccc(-c2c[nH]c(Nc3ccc4c(c3O)C(=O)C3=C(O)[C@]5(O)C(=O)C(C(N)=O)=C(O)[C@@H](N(C)C)[C@@H]5[C@@H](O)[C@@H]3[C@H]4C)n2)cc1,> 4 µg/mL,< 4 µg/mL,,
CN(C)[C@@H]1C(O)=C(C(N)=O)C(=O)[C@@]2(O)C(O)=C3C(=O)c4c(O)ccc(-c5cccc([N+](=O)[O-])c5)c4C[C@H]3C[C@@H]12,< 4 µg/mL,< 4 µg/mL,,
COC(=O)c1ccc(-c2ccc(O)c3c2C[C@H]2C[C@H]4[C@H](N(C)C)C(O)=C(C(N)=O)C(=O)[C@@]4(O)C(O)=C2C3=O)cc1,< 4 µg/mL,< 4 µg/mL,,
CN(C)c1ccc(-c2ccc(O)c3c2C[C@H]2C[C@H]4[C@H](N(C)C)C(O)=C(C(N)=O)C(=O)[C@@]4(O)C(O)=C2C3=O)cc1,< 4 µg/mL,< 4 µg/mL,,
CN(C)c1cc(-c2ccc(C(=O)O)cc2)c(O)c2c1C[C@H]1C[C@H]3[C@H](N(C)C)C(O)=C(C(N)=O)C(=O)[C@@]3(O)C(O)=C1C2=O,< 4 µg/mL,< 4 µg/mL,,
CN(C)c1cc(-c2ccc(F)cc2F)c(O)c2c1C[C@H]1C[C@H]3[C@H](N(C)C)C(O)=C(C(N)=O)C(=O)[C@@]3(O)C(O)=C1C2=O,< 4 µg/mL,< 4 µg/mL,,
CN(C)c1cc(-c2ccc(F)c(F)c2)c(O)c2c1C[C@H]1C[C@H]3[C@H](N(C)C)C(O)=C(C(N)=O)C(=O)[C@@]3(O)C(O)=C1C2=O,< 4 µg/mL,< 4 µg/mL,,
CN(C)c1cc(C#Cc2ccccc2)c(O)c2c1C[C@H]1C[C@H]3[C@H](N(C)C)C(O)=C(C(N)=O)C(=O)[C@@]3(O)C(O)=C1C2=O,< 4 µg/mL,< 4 µg/mL,,
CN(C)[C@@H]1C(O)=C(C(N)=O)C(=O)[C@@]2(O)C(O)=C3C(=O)c4c(O)ccc(C#Cc5ccccc5)c4C[C@H]3C[C@@H]12,< 4 µg/mL,< 4 µg/mL,,
CN(C)[C@@H]1C(O)=C(C(N)=O)C(=O)[C@@]2(O)C(O)=C3C(=O)c4c(O)ccc(C5C=CCC5)c4C[C@H]3C[C@@H]12 (stereo partly shown),< 4 µg/mL,< 4 µg/mL,,
COc1ccc(C#Cc2cc(N(C)C)c3c(c2O)C(=O)C2=C(O)[C@]4(O)C(=O)C(C(N)=O)=C(O)[C@@H](N(C)C)[C@@H]4C[C@@H]2C3)cc1,< 4 µg/mL,< 4 µg/mL,,
CN(C)c1cc(C#Cc2ccc(F)cc2)c(O)c2c1C[C@H]1C[C@H]3[C@H](N(C)C)C(O)=C(C(N)=O)C(=O)[C@@]3(O)C(O)=C1C2=O,< 4 µg/mL,< 4 µg/mL,,
CC#Cc1cc(N(C)C)c2c(c1O)C(=O)C1=C(O)[C@]3(O)C(=O)C(C(N)=O)=C(O)[C@@H](N(C)C)[C@@H]3C[C@@H]1C2,> 4 µg/mL,> 4 µg/mL,,
CN(C)[C@@H]1C(O)=C(C(N)=O)C(=O)[C@@]2(O)C(O)=C3C(=O)c4c(O)ccc(C#CC5CCCCC5)c4C[C@H]3C[C@@H]12,< 4 µg/mL,< 4 µg/mL,,
CN(C)[C@@H]1C(O)=C(C(N)=O)C(=O)[C@@]2(O)C(O)=C3C(=O)c4c(O)ccc(/C=C/c5c(F)c(F)c(F)c(F)c5F)c4C[C@H]3C[C@@H]12,> 4 µg/mL,< 4 µg/mL,,
CN(C)c1cc(C#CC2=CCCCC2)c(O)c2c1C[C@H]1C[C@H]3[C@H](N(C)C)C(O)=C(C(N)=O)C(=O)[C@@]3(O)C(O)=C1C2=O,< 4 µg/mL,< 4 µg/mL,,
CN(C)[C@@H]1C(O)=C(C(N)=O)C(=O)[C@@]2(O)C(O)=C3C(=O)c4c(O)ccc(-c5ccc(C(F)(F)F)cc5)c4C[C@H]3C[C@@H]12,< 4 µg/mL,< 4 µg/mL,,
Cc1ccc(-c2ccc(O)c3c2C[C@H]2C[C@H]4[C@H](N(C)C)C(O)=C(C(N)=O)C(=O)[C@@]4(O)C(O)=C2C3=O)cc1,< 4 µg/mL,< 4 µg/mL,,
CN(C)[C@@H]1C(O)=C(C(N)=O)C(=O)[C@@]2(O)C(O)=C3C(=O)c4c(O)ccc(C=C5CCC5)c4C[C@H]3C[C@@H]12,< 4 µg/mL,< 4 µg/mL,,
CCNc1ccc(-c2ccc(O)c3c2C[C@H]2C[C@H]4[C@H](N(C)C)C(O)=C(C(N)=O)C(=O)[C@@]4(O)C(O)=C2C3=O)cc1,< 4 µg/mL,< 4 µg/mL,,
CCCC(C)(C)NC(=O)C1=C(O)[C@@H](N(C)C)[C@@H]2[C@@H](O)[C@H]3C(=C(O)[C@]2(O)C1=O)C(=O)c1c(O)cccc1[C@@H]3C [P],,,< 4 µg/mL,
CCOP(=O)(OCC)C(Nc1cc(N(C)C)c2c(c1O)C(=O)C1=C(O)[C@]3(O)C(=O)C(C(N)=O)=C(O)[C@@H](N(C)C)[C@@H]3C[C@@H]1C2)c1ccc(OC)cc1 (stereo partly shown) [Z],,,,< 4 µg/mL
